Measured values taken from patent US9238034B2, “FN14 antagonists and therapeutic uses thereof” (THE TRANSLATIONAL GENOMICS RESEARCH INSTITUTE, priority 2013, dated 2016).

T1: Fn14 (Homo sapiens, UniProt Q9NP84)
T1 construct: the human Fc fragment-tagged Fn14 extracellular domain (R&D Systems) was captured
T1 sequence (Q9NP84 28-80 limits assumed): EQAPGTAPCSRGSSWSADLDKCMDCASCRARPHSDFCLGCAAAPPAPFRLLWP

T2: TWEAK (Homo sapiens, UniProt O43508)
T2 sequence (O43508 94-249 limits assumed): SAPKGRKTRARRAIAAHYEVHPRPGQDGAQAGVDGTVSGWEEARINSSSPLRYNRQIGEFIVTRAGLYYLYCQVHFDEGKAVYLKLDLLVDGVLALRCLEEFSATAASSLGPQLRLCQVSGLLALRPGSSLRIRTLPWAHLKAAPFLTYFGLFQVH


Key:
TNFα induction of NF-κB = test: TNFα induced counterscreen assay, HEK293 NF-κB Luc cells; type: cell-based, human
From the text: TNFα induction of the HEK293 NF-κB cell line was used as a counterscreen. […] Furthermore, we tested the two control compounds, LY294002 and BAY11-7082, in a drug dose-response format. […] We anticipate that compounds that directly affect Fn14 oligomerization, TWEAK ligation, or signaling proteins specific to the TWEAK-Fn14 signaling pathway that drive NF-κB activation will show minimal activity in the TNFα counterscreen assay. In order to eliminate the false positive hits from the pilot screen, we further performed the counterscreen by testing 35 “positives” from the Prestwick collection against HEK293 NF-KB-Luc control cell lines induced by TNFα. From this experiment we eliminated 28 compounds that inhibited luciferase expression after TNFα induction of HEK293 NF-KB Luc cells. Thus, after counterscreen only 7 compounds appeared to be specific inhibitors to the TWEAK-Fn14 signaling pathway. […] Overall, through our pilot primary screen and counterscreen, our hit rate approached 0.6% for this targeted collection. We expect a random collection to yield a lower hit-rate, which will be further reduced through the chemoinformatic filtering for luciferase false positive artifacts. Furthermore, secondary assays will be critical as cytotoxic false positives appeared to be about 80% from our pilot screen. […]

[1] = test system: TWEAK-Fn14 signaling pathway; test: TWEAK induced Fn14-NF-κB Luc assay, optimized 384-well HTS format; type: cell-based, human; settings: 1000 cells/well, 40 ng/mL TWEAK 8 hr, 1 hr pre-incubation
From the text: Human embryonic kidney cells (HEK293) express low levels of the Fn14 receptor. We developed a cell-based assay for the Fn14-TWEAK pathway signaling events using HEK293 cells that stably co-expresses high levels of full length Fn14 receptor and a firefly luciferase reporter driven by NF-KB-response elements (Fn14-NF-KB-Luc).
We optimized HEK293 Fn14-NF-KB Luc cell line for HTS by testing TWEAK-stimulated Luc-reporting as a function of growth medium, TWEAK concentration, induction time, assay duration, cell density, and DMSO concentration. For example, we seeded HEK293 Fn14-NF-KB-Luc and control cells (HEK293 NFKB-Luc) into a 96-well plate at a density of 10,000 cells/well, in DMEM or Opti-MEM® (Reduced serum media, protein concentration 15 μg/mL) and incubated at 37 C for 24 or 48 h. We then induced them with various concentrations of TWEAK in buffer or buffer alone (PBS+1 mg/mL BSA) for 5 hr and then measured firefly luciferase levels by chemiluminescence (Bright-Glo™ Promega). […] These initial conditions formed the basis for transfer of the assay into a 384-well format and further optimization with respect to cell seeding density, induction time, and TWEAK concentration.
We achieved the same conclusion from both 96-well and 384-well format that signal-to-background and fold-inductions are increased with increasing TWEAK concentration, peaking between 40-80 ng/mL and decreased at 100 ng/mL (FIGS. 20A and 20B). […] These conditions were further refined with respect to cell density (500-2500 cells per well), induction time (4-8 hr), and two TWEAK concentrations over a series of experiments in 384-well formats.
In the majority of seeding density conditions and two different TWEAK concentrations, the assay performance improved with increasing TWEAK induction time. At 8 hours of TWEAK stimulation, the fold induction (S/B) and Z′ factor was approximately 8-fold and 0.8, respectively, and the average % CV was 6.8%. […]

Fn14 = molecular target: T1, Fn14; test: Surface Plasmon Resonance assay, Fn14-Fc sensor surface; type: binding; settings: SPR, 0 to 50 μM
Experimental: (§1) Surface Plasmon Resonance (SPR) Assay. The binding affinity of at least one of the compounds (e.g., L524-0366) to TWEAK and Fn14-Fx was determined using a BIAcore T100 optical biosensor (GE Healthcare) at 25 degrees Celsius at the Arizona Proteomics Consortium. Recombinant human TWEAK (20 μg/mL in 10 mM HEPES pH 7.4, 150 mM NaCl, 3 mM EDTA, 0.05% Tween 20) or recombinant human Fn14-Fc (20 μg/mL in 10 mM NaOAc pH 4.0) were covalently coupled to separate flow cells on a BIAcore CM5 sensor chip using standard amine coupling chemistry as per manufacturer's protocol. Final immobilization levels were 6000 Response Units (RU) for TWEAK and 13,000 RU for FN14-Fc. The first flow path of the chip was treated with the same coupling and blocking reagents without protein and was used as a reference for each binding cycle. Functionality of the TWEAK and the Fn14-Fc sensor surfaces were verified by injecting Fn14-Fc and TWEAK over them respectively. Serial dilutions of L524-0366 or cycloheximide (control) from 0 to 50 μM were made in running buffer (10 mM HEPES pH 7.4, 150 mM NaCl, 3 mM EDTA, 1% DMSO). […] Equilibrium dissociation constants for the small molecules were calculated by fitting the double reference subtracted data to Req=((CRmax)/(KD+C))+RI, where RI is the bulk refractive index contribution.

TWEAK = molecular target: T2, TWEAK; test: Surface Plasmon Resonance assay, TWEAK sensor surface; type: binding; settings: SPR, 0 to 50 μM
Experimental: as §1

Fn14 signaling [2] = test: NF-κB luciferase reporter assay with sTWEAK variants, HEK293 NF-κB luciferase cells; type: cell-based, human; settings: 5 hr
Experimental: (§2) NF-κB luciferase reporter Assay. The capacity of sTWEAK or sTWEAK variants to activate Fn14 signaling was evaluated using engineered reporter cell lines that express luciferase upon NF-κB activation. Two reporter cell lines were utilized for these experiments. HEK293 NF-κB luciferase (courtesy of Dr. Jeff Winkles) were generated by transfecting HEK293 cells with a reporter plasmid containing 5 copies of a consensus NF-κB binding site upstream of a minimal CMV promoter driving expression of firefly luciferase. The second cell line, designated HEK293 NF-κB luciferase Fn14 FL, was generated by stably transfecting the HEK293 NF-κB luciferase cell line with full length Fn14. To assay the binding of sTWEAK or sTWEAK variants to Fn14, reporter cells were seeded in tissue culture treated white 96-well plates at 1×10^4 cells/well in 80 μL Opti-MEM media (Invitrogen) and incubated for 48 hr at 37° C. After 48 hr incubation, 20 μL of 5× purified recombinant TWEAK (Peprotech Inc.; 150 ng/mL) in 1 mg/mL BSA in PBS was added to each well and incubated for 5 hr at 37° C. as positive control. Similarly, equivalent amounts of sTWEAK or sTWEAK variant prepared via IVTTas determined using ELISA assay described above was added in 20 μl. […] At the end of 5 hr incubation, the luminescent signal was determined using Bright-Glo assay kit (Promega, Madison, Wis.) according to the manufacturer's instructions.

Fn14 signaling [3] = test: NF-κB luciferase reporter assay with sTWEAK variants, HEK293 NF-κB luciferase cells overexpressing full length Fn14; type: cell-based, human; settings: HEK293 NF-κB luciferase cells stably overexpressing full length Fn14, 5 hr
Experimental: as §2

| Molecule | effect on TWEAK induced Fn14-NF-κB Luc signal [1] | luciferase expression less than cells stimulated with sTWEAK (Fn14 signaling [2]) | induction of luciferase expression less relative to cells stimulated with sTWEAK (Fn14 signaling [3]) | also measured |
| --- | --- | --- | --- | --- |
| Cc1ccc(S(=O)(=O)/C=C/C#N)cc1 [BAY11-7082] | dose-dependent manner | – | – | drug inhibition of TNFα activation, Fn14 versus control cell lines (TNFα induction of NF-κB; drug dose-response format, 40 ng/ml TNFα): no significant difference |
| C[C@@H]1C[C@@H]([C@H](O)CC2CC(=O)NC(=O)C2)C(=O)[C@@H](C)C1 [cycloheximide, reference compound] | – | – | – | binding to Fn14 (Fn14): did not show significant binding; binding to TWEAK (TWEAK): did not show significant binding |
| CC(C(=O)O)c1ccc(N2Cc3ccccc3C2=O)cc1 (stereo not shown) [Indoprofen] | drug sensitivity in a dose-dependent manner | – | – | effect in NF-KB Luc cells induced with TNFα (TNFα induction of NF-κB; 10 μM, TNFα 40 ng/mL for 8 hours): no significant effect |
| sTWEAK Y176A: soluble form of TWEAK (amino acids K97-H249) with Y176A substitution, made by IVTT (protein, UniProt O43508 97-249, looked up, variant Y176A) KGRKTRARRAIAAHYEVHPRPGQDGAQAGVDGTVSGWEEARINSSSPLRYNRQIGEFIVTRAGLYYLYCQVHFDEGKAVALKLDLLVDGVLALRCLEEFSATAASSLGPQLRLCQVSGLLALRPGSSLRIRTLPWAHLKAAPFLTYFGLFQVH | – | 87% | 98% | – |
| sTWEAK Y176F: soluble form of TWEAK (amino acids K97-H249) with Y176F substitution, made by IVTT (protein, UniProt O43508 97-249, looked up, variant Y176F) KGRKTRARRAIAAHYEVHPRPGQDGAQAGVDGTVSGWEEARINSSSPLRYNRQIGEFIVTRAGLYYLYCQVHFDEGKAVFLKLDLLVDGVLALRCLEEFSATAASSLGPQLRLCQVSGLLALRPGSSLRIRTLPWAHLKAAPFLTYFGLFQVH | – | 100% | 98% | – |
